{"source": "PubChem BioAssay AID1259407", "about": "(Chemical Carcinogenesis Research Information System (CCRIS), 2018)", "tested_on": "CCRIS mutagenicity, Ames/micronucleus/aberration tests", "experiment": "CCRIS mutagenicity studies", "key": {"[1]": {"details": "Test System: AMES SALMONELLA TYPHIMURIUM, Strain/Indicator: TA98, Metabolic Activation: HAMSTER, LIVER, S-9, AROCLOR 1254 (10%), Method: PREINCUBATION"}, "[2]": {"details": "Test System: AMES SALMONELLA TYPHIMURIUM, Strain/Indicator: TA98, Metabolic Activation: NONE, Method: PREINCUBATION"}, "[3]": {"details": "Test System: AMES SALMONELLA TYPHIMURIUM, Strain/Indicator: TA98, Metabolic Activation: RAT, LIVER, S-9, AROCLOR 1254 (10%), Method: PREINCUBATION"}, "[4]": {"details": "Test System: AMES SALMONELLA TYPHIMURIUM, Strain/Indicator: TA100, Metabolic Activation: HAMSTER, LIVER, S-9, AROCLOR 1254 (10%), Method: PREINCUBATION"}, "[5]": {"details": "Test System: AMES SALMONELLA TYPHIMURIUM, Strain/Indicator: TA100, Metabolic Activation: NONE, Method: PREINCUBATION"}, "[6]": {"details": "Test System: AMES SALMONELLA TYPHIMURIUM, Strain/Indicator: TA100, Metabolic Activation: RAT, LIVER, S-9, AROCLOR 1254 (10%), Method: PREINCUBATION"}, "[7]": {"details": "Test System: AMES SALMONELLA TYPHIMURIUM, Strain/Indicator: TA1535, Metabolic Activation: HAMSTER, LIVER, S-9, AROCLOR 1254 (10%), Method: PREINCUBATION"}, "[8]": {"details": "Test System: AMES SALMONELLA TYPHIMURIUM, Strain/Indicator: TA1535, Metabolic Activation: NONE, Method: PREINCUBATION"}, "[9]": {"details": "Test System: AMES SALMONELLA TYPHIMURIUM, Strain/Indicator: TA1535, Metabolic Activation: RAT, LIVER, S-9, AROCLOR 1254 (10%), Method: PREINCUBATION"}}, "note": "Active and inactive are the calls of the source. The rule behind the calls is not given here.", "data": [{"smiles": "NC(=O)N(CC(=O)O)N=O", "values": [{"measurement": "mutagenic call", "setting": "Test System: E. COLI B, Strain/Indicator: H/R30R, Metabolic Activation: NONE", "value": "active; positive"}, {"measurement": "mutagenic call", "setting": "Test System: E. COLI B, Strain/Indicator: HS30R, Metabolic Activation: NONE", "value": "active; positive"}]}, {"smiles": "CC(=O)ON(OCc1ccc(C)cc1)C(=O)c1ccccc1", "values": [{"measurement": "mutagenic call", "setting": "Test System: AMES SALMONELLA TYPHIMURIUM, Strain/Indicator: TA100, Metabolic Activation: NONE, Method: STANDARD PLATE", "value": "active; positive"}, {"measurement": "mutagenic call", "setting": "Test System: AMES SALMONELLA TYPHIMURIUM, Strain/Indicator: TA100, Metabolic Activation: RAT, S-9, AROCLOR, Method: STANDARD PLATE", "value": "active; positive"}]}, {"smiles": "Cc1ccc(C(C)(C)C)cc1", "values": [{"measurement": "mutagenic call", "setting": "[1]", "value": "inactive; negative"}, {"measurement": "mutagenic call", "setting": "[2]", "value": "inactive; negative"}, {"measurement": "mutagenic call", "setting": "[3]", "value": "inactive; negative"}, {"measurement": "mutagenic call", "setting": "[4]", "value": "inactive; negative"}, {"measurement": "mutagenic call", "setting": "[5]", "value": "inactive; negative"}, {"measurement": "mutagenic call", "setting": "[6]", "value": "inactive; negative"}, {"measurement": "mutagenic call", "setting": "[7]", "value": "inactive; negative"}, {"measurement": "mutagenic call", "setting": "[8]", "value": "inactive; negative"}, {"measurement": "mutagenic call", "setting": "[9]", "value": "inactive; negative"}, {"measurement": "mutagenic call", "setting": "Test System: AMES SALMONELLA TYPHIMURIUM, Strain/Indicator: TA1537, Metabolic Activation: HAMSTER, LIVER, S-9, AROCLOR 1254 (10%), Method: PREINCUBATION", "value": "inactive; negative"}, {"measurement": "mutagenic call", "setting": "Test System: AMES SALMONELLA TYPHIMURIUM, Strain/Indicator: TA1537, Metabolic Activation: NONE, Method: PREINCUBATION", "value": "inactive; negative"}, {"measurement": "mutagenic call", "setting": "Test System: AMES SALMONELLA TYPHIMURIUM, Strain/Indicator: TA1537, Metabolic Activation: RAT, LIVER, S-9, AROCLOR 1254 (10%), Method: PREINCUBATION", "value": "inactive; negative"}]}, {"smiles": "O=c1ccc2cc3cc4cccc5ccc(c2c1)c3c54", "values": [{"measurement": "mutagenic call", "setting": "Test System: AMES SALMONELLA TYPHIMURIUM, Strain/Indicator: TA98, Metabolic Activation: NONE, Method: STANDARD PLATE", "value": "inactive; negative"}, {"measurement": "mutagenic call", "setting": "Test System: AMES SALMONELLA TYPHIMURIUM, Strain/Indicator: TA98, Metabolic Activation: RAT, LIVER, S-9, AROCLOR 1254, Method: STANDARD PLATE", "value": "inactive; negative"}, {"measurement": "mutagenic call", "setting": "Test System: AMES SALMONELLA TYPHIMURIUM, Strain/Indicator: TA100, Metabolic Activation: RAT, LIVER, S-9, AROCLOR 1254, Method: STANDARD PLATE", "value": "active; positive"}]}, {"smiles": "c1ccc(Nc2ccccc2)cc1", "values": [{"measurement": "mutagenic call", "setting": "End Point: In vitro chromosomal aberrations, Test System: Chinese hamster lung (CHL/IU) cells, Metabolic Activation: Rat, Liver, S9, Phenobarbital and 5,6-benzoflavone", "value": "active; positive (structural changes). toxicity at 0.14 mg/ml."}, {"measurement": "mutagenic call", "setting": "Test System: AMES SALMONELLA TYPHIMURIUM, Strain/Indicator: TA97, Metabolic Activation: HAMSTER, LIVER, S-9, AROCLOR 1254 (10%), Method: PREINCUBATION", "value": "inactive; negative"}, {"measurement": "mutagenic call", "setting": "Test System: AMES SALMONELLA TYPHIMURIUM, Strain/Indicator: TA97, Metabolic Activation: HAMSTER, LIVER, S-9, AROCLOR 1254 (30%), Method: PREINCUBATION", "value": "inactive; negative"}, {"measurement": "mutagenic call", "setting": "Test System: AMES SALMONELLA TYPHIMURIUM, Strain/Indicator: TA97, Metabolic Activation: NONE, Method: PREINCUBATION", "value": "inactive; negative"}, {"measurement": "mutagenic call", "setting": "Test System: AMES SALMONELLA TYPHIMURIUM, Strain/Indicator: TA97, Metabolic Activation: RAT, LIVER, S-9, AROCLOR 1254 (10%), Method: PREINCUBATION", "value": "inactive; negative"}, {"measurement": "mutagenic call", "setting": "Test System: AMES SALMONELLA TYPHIMURIUM, Strain/Indicator: TA97, Metabolic Activation: RAT, LIVER, S-9, AROCLOR 1254 (30%), Method: PREINCUBATION", "value": "inactive; negative"}, {"measurement": "mutagenic call", "setting": "[1]", "value": "inactive; negative"}, {"measurement": "mutagenic call", "setting": "Test System: AMES SALMONELLA TYPHIMURIUM, Strain/Indicator: TA98, Metabolic Activation: HAMSTER, LIVER, S-9, AROCLOR 1254 (30%), Method: PREINCUBATION", "value": "inactive; negative"}, {"measurement": "mutagenic call", "setting": "[2]", "value": "inactive; negative"}, {"measurement": "mutagenic call", "setting": "[3]", "value": "inactive; negative"}, {"measurement": "mutagenic call", "setting": "Test System: AMES SALMONELLA TYPHIMURIUM, Strain/Indicator: TA98, Metabolic Activation: RAT, LIVER, S-9, AROCLOR 1254 (30%), Method: PREINCUBATION", "value": "inactive; negative"}, {"measurement": "mutagenic call", "setting": "[4]", "value": "inactive; negative"}, {"measurement": "mutagenic call", "setting": "Test System: AMES SALMONELLA TYPHIMURIUM, Strain/Indicator: TA100, Metabolic Activation: HAMSTER, LIVER, S-9, AROCLOR 1254 (30%), Method: PREINCUBATION", "value": "inactive; negative"}, {"measurement": "mutagenic call", "setting": "[5]", "value": "inactive; negative"}, {"measurement": "mutagenic call", "setting": "[6]", "value": "inactive; negative"}, {"measurement": "mutagenic call", "setting": "Test System: AMES SALMONELLA TYPHIMURIUM, Strain/Indicator: TA100, Metabolic Activation: RAT, LIVER, S-9, AROCLOR 1254 (30%), Method: PREINCUBATION", "value": "inactive; negative"}, {"measurement": "mutagenic call", "setting": "[7]", "value": "inactive; negative"}, {"measurement": "mutagenic call", "setting": "Test System: AMES SALMONELLA TYPHIMURIUM, Strain/Indicator: TA1535, Metabolic Activation: HAMSTER, LIVER, S-9, AROCLOR 1254 (30%), Method: PREINCUBATION", "value": "inactive; negative"}, {"measurement": "mutagenic call", "setting": "[8]", "value": "inactive; negative"}, {"measurement": "mutagenic call", "setting": "[9]", "value": "inactive; negative"}, {"measurement": "mutagenic call", "setting": "Test System: AMES SALMONELLA TYPHIMURIUM, Strain/Indicator: TA1535, Metabolic Activation: RAT, LIVER, S-9, AROCLOR 1254 (30%), Method: PREINCUBATION", "value": "inactive; negative"}]}, {"smiles": "CC(=O)NC[C@@H](O)COc1cccc2ccccc12", "values": [{"measurement": "mutagenic call", "setting": "Test System: AMES SALMONELLA TYPHIMURIUM, Strain/Indicator: TA98, Metabolic Activation: RAT, LIVER, S-9, AROCLOR 1254, Method: PREINCUBATION", "value": "inactive; negative"}, {"measurement": "mutagenic call", "setting": "Test System: AMES SALMONELLA TYPHIMURIUM, Strain/Indicator: TA100, Metabolic Activation: RAT, LIVER, S-9, AROCLOR 1254, Method: PREINCUBATION", "value": "inactive; negative"}, {"measurement": "mutagenic call", "setting": "Test System: AMES SALMONELLA TYPHIMURIUM, Strain/Indicator: TA102, Metabolic Activation: RAT, LIVER, S-9, AROCLOR 1254, Method: PREINCUBATION", "value": "inactive; negative"}, {"measurement": "mutagenic call", "setting": "Test System: AMES SALMONELLA TYPHIMURIUM, Strain/Indicator: TA104, Metabolic Activation: RAT, LIVER, S-9, AROCLOR 1254, Method: PREINCUBATION", "value": "inactive; negative"}, {"measurement": "mutagenic call", "setting": "Test System: AMES SALMONELLA TYPHIMURIUM, Strain/Indicator: TA1535, Metabolic Activation: RAT, LIVER, S-9, AROCLOR 1254, Method: PREINCUBATION", "value": "inactive; negative"}, {"measurement": "mutagenic call", "setting": "Test System: AMES SALMONELLA TYPHIMURIUM, Strain/Indicator: TA1538, Metabolic Activation: RAT, LIVER, S-9, AROCLOR 1254, Method: PREINCUBATION", "value": "inactive; negative"}, {"measurement": "mutagenic call", "setting": "Test System: AMES SALMONELLA TYPHIMURIUM, Strain/Indicator: YG1021, Metabolic Activation: RAT, LIVER, S-9, AROCLOR 1254, Method: PREINCUBATION", "value": "inactive; negative"}, {"measurement": "mutagenic call", "setting": "Test System: AMES SALMONELLA TYPHIMURIUM, Strain/Indicator: YG1024, Metabolic Activation: RAT, LIVER, S-9, AROCLOR 1254, Method: PREINCUBATION", "value": "inactive; negative"}, {"measurement": "mutagenic call", "setting": "Test System: AMES SALMONELLA TYPHIMURIUM, Strain/Indicator: YG1026, Metabolic Activation: RAT, LIVER, S-9, AROCLOR 1254, Method: PREINCUBATION", "value": "inactive; negative"}, {"measurement": "mutagenic call", "setting": "Test System: AMES SALMONELLA TYPHIMURIUM, Strain/Indicator: YG1029, Metabolic Activation: RAT, LIVER, S-9, AROCLOR 1254, Method: PREINCUBATION", "value": "inactive; negative"}, {"measurement": "mutagenic call", "setting": "Test System: AMES SALMONELLA TYPHIMURIUM, Strain/Indicator: YG1041, Metabolic Activation: RAT, LIVER, S-9, AROCLOR 1254, Method: PREINCUBATION", "value": "inactive; negative"}, {"measurement": "mutagenic call", "setting": "Test System: AMES SALMONELLA TYPHIMURIUM, Strain/Indicator: YG1042, Metabolic Activation: RAT, LIVER, S-9, AROCLOR 1254, Method: PREINCUBATION", "value": "inactive; negative"}, {"measurement": "mutagenic call", "setting": "Test System: AMES SALMONELLA TYPHIMURIUM, Strain/Indicator: YG3003, Metabolic Activation: RAT, LIVER, S-9, AROCLOR 1254, Method: PREINCUBATION", "value": "inactive; negative"}]}]}
